Reference: patent US9913830B2, “Materials and methods for modulating immune responses” (UNIVERSITY OF FLORIDA RESEARCH FOUNDATION, INCORPORATED, priority 2011, dated 2018)

Assays:
naïve human CD4+ T cells = test: FOXP3 induction in naïve CD4+ T cells, flow cytometry; assay type: cell-based
Method: Freshly isolated naïve (CD4+ CD25− CD127hi CD45RO−) T cells are cultured and treated with PDE3b and PDE4 inhibitors (middle panel) or rapamycin (positive control) (right panel), or are left untreated (left panel). CD25 and FOXP3 expression is measured by flow cytometry after 14 days of expansion.
Treatment of Tregs with small molecules that maintain high cAMP levels in T cells can be used to induce a regulatory phenotype. Small molecules that maintain high cAMP levels in T cells include agents that inhibit PDEs and agents that activate AC.

NOD mice = test: Onset of diabetes in NOD mice, blood glucose monitoring; assay type: in vivo; details: 8-week old NOD mice, 65 mg/kg i.p., three times a week for five weeks, monotherapy
Method: Briefly, 8-week old NOD mice are injected (i.p.) with various doses of cilostamide (low: 0.65 mg/kg, medium: 6.5 mg/kg, high: 65 mg/kg), or vehicle only. Cilostamide is administered three times a week for five weeks. The onset of diabetes in treated mice is monitored by blood glucose measurements. Diabetes is diagnosed if the blood glucose readings are greater than 240 mg/dl for two days.
The increase in level of FoxP3+ cells at an early stage of the autoimmune attack can be used to prevent or delay the onset of autoimmune disease. Briefly, 8-week old NOD mice are treated with various doses (low: 0.65 mg/kg; medium: 6.5 mg/kg; high: 65 mg/kg) of cilostamide via intraperitoneal (i.p.) injection. Cilostamide is administered to the mice three times a week for five weeks.

CN(C(=O)CCCOc1ccc2[nH]c(=O)ccc2c1)C1CCCCC1 [cilostamide] was tested, and the FOXP3 induction (naïve human CD4+ T cells; naïve CD4+ CD25− CD45RO− T cells, 14 days of expansion, vs non-treated controls) was “increased FOXP3 induction”, the “ratio of FOXP3+ cells” value (naïve human CD4+ T cells; naïve CD4+ T cells, 14 days, vs rapamycin positive control) was “comparable to that of the rapamycin-treated group” and the onset of diabetes (NOD mice) was “delayed the onset of diabetes”.
